Our source for the zone of inhibition values is ChEMBL document CHEMBL3046819, “Synthesis and antimicrobial activity of new pyridine derivatives-I” (2011).

Type in all cases: functional
What all share (settings): read-out: IZ

Test [1] has as its system Candida albicans. Briefly: Antifungal activity against Candida albicans ATCC 10231 at 200 ug/ml by cup-plate method.
The test system of test [2] is Candida albicans. Put plainly: Antifungal activity against Candida albicans ATCC 10231 at 100 ug/ml by cup-plate method.
For test [3], the system named is Bacillus subtilis. Briefly: Antibacterial activity against Bacillus subtilis ATCC 6633 at 200 ug/ml by cup-plate method.
The test system of test [4] is Bacillus subtilis. Put plainly: Antibacterial activity against Bacillus subtilis ATCC 6633 at 100 ug/ml by cup-plate method.
Test [5] has as its system Staphylococcus aureus. Put plainly: Antibacterial activity against Staphylococcus aureus ATCC 9144 at 200 ug/ml by cup-plate method.
Test [6] relates to Staphylococcus aureus. Briefly: Antibacterial activity against Staphylococcus aureus ATCC 9144 at 100 ug/ml by cup-plate method.
Test [7] concerns Escherichia coli. Put plainly: Antibacterial activity against Escherichia coli ATCC 25922 at 200 ug/ml by cup-plate method.
In test [8] the test system is Escherichia coli. Briefly: Antibacterial activity against Escherichia coli ATCC 25922 at 100 ug/ml by cup-plate method.
Test [9] concerns Pseudomonas aeruginosa. Put plainly: Antibacterial activity against Pseudomonas aeruginosa ATCC 9027 at 200 ug/ml by cup-plate method.
The test system of test [10] is Pseudomonas aeruginosa. Briefly: Antibacterial activity against Pseudomonas aeruginosa ATCC 9027 at 100 ug/ml by cup-plate method.

Turning to `O=C(c1cccnc1Nc1nc2c([N+](=O)[O-])cccc2s1)N1CCNC(Cl)C1Cl` (stereo not given), the zone of inhibition at 200 µg/mL in [1] came out at 4 mm; in [3] it was 10 mm; in test [5] it was 10 mm; in test [7], 10 mm; in test [9], 9 mm. In addition, the zone of inhibition at 100 µg/mL in test [2] was found to be 2 mm; in test [4] it was 5 mm; in test [6], 8 mm; in [8], 9 mm; in test [10] it was 8 mm.
For `COc1ccc2nc(Nc3ncccc3C(=O)N3CCN(CCO)CC3)sc2c1`, the zone of inhibition at 200 µg/mL amounted to 5 mm in [1]; 4 mm in test [3]; 9 mm in test [5]; 8 mm in test [7]; 5 mm in test [9]. Further, the zone of inhibition at 100 µg/mL in test [2] was determined as 0 mm; in test [4] it was 0 mm; in test [6], 8 mm; in test [8], 8 mm; in test [10], 4 mm.
Consider `O=C(c1cccnc1Nc1nc2ccccc2s1)N1CCNC(Cl)C1Cl` (stereo not given), for which the zone of inhibition at 200 µg/mL is 5 mm in test [1]; 7 mm in test [3]; 7 mm in test [5]; 8 mm in test [7]; 5 mm in test [9]. For the same molecule, the zone of inhibition at 100 µg/mL in [2] was found to be 3 mm; in test [4], 6 mm; in test [6], 5 mm; in test [8] it was 7 mm; in [10], 4 mm.
Turning to `O=C(c1cccnc1Nc1nc2cc([N+](=O)[O-])ccc2s1)N1CCNC(Cl)C1Cl` (stereo not given), the zone of inhibition at 200 µg/mL is 4 mm in [1]; 7 mm in test [3]; 9 mm in [5]; 5 mm in test [7]; 6 mm in test [9]. The zone of inhibition at 100 µg/mL in [2] came out at 1 mm; in [4], 8 mm; in [6], 6 mm; in test [8], 4 mm; in test [10] it was 5 mm.
Consider `O=C(c1cccnc1Nc1nc2ccc([N+](=O)[O-])cc2s1)N1CCNC(Cl)C1Cl` (stereo not given), for which the zone of inhibition at 200 µg/mL in test [1] was found to be 3 mm; in test [3], 7 mm; in [5], 8 mm; in test [7], 6 mm; in test [9], 8 mm. In addition, the zone of inhibition at 100 µg/mL came to 0 mm in test [2]; 7 mm in test [4]; 8 mm in [6]; 6 mm in test [8]; 6 mm in [10].
Regarding `O=C(c1cccnc1Nc1nc2c(Cl)cccc2s1)N1CCNC(Cl)C1Cl` (stereo not given), the zone of inhibition at 200 µg/mL in [1] was found to be 6 mm; in test [3], 6 mm; in test [5] it was 4 mm; in [7], 5 mm; in [9], 3 mm. For the same molecule, the zone of inhibition at 100 µg/mL worked out at 3 mm in test [2]; 3 mm in test [4]; 3 mm in test [6]; 4 mm in [8]; 3 mm in test [10].
With `O=C(c1cccnc1Nc1nc2cc(Cl)ccc2s1)N1CCNC(Cl)C1Cl` (stereo not given), the zone of inhibition at 200 µg/mL in test [1] came out at 2 mm; in test [3] it was 5 mm; in [5], 0 mm; in [7], 3 mm; in test [9] it was 2 mm. Besides, the zone of inhibition at 100 µg/mL in test [2] was 1 mm; in test [4], 5 mm; in test [6] it was 0 mm; in [8] it was 2 mm; in test [10], 0 mm.
On to `O=C(c1cccnc1Nc1nc2ccc(Cl)cc2s1)N1CCNC(Cl)C1Cl` (stereo not given), for which the zone of inhibition at 200 µg/mL is 1 mm in [1]; 6 mm in test [3]; 10 mm in [5]; 9 mm in test [7]; 8 mm in [9]. The zone of inhibition at 100 µg/mL in test [2] is 0 mm; in test [4] it was 5 mm; in test [6] it was 7 mm; in test [8], 7 mm; in [10], 8 mm.
With `Cc1cccc2sc(Nc3ncccc3C(=O)N3CCNC(Cl)C3Cl)nc12` (stereo not given), the zone of inhibition at 200 µg/mL in test [1] turned out to be 0 mm; in test [3], 4 mm; in test [5] it was 6 mm; in test [7] it was 10 mm; in test [9], 7 mm. The zone of inhibition at 100 µg/mL in test [2] stood at 0 mm; in test [4] it was 4 mm; in test [6], 4 mm; in test [8] it was 8 mm; in test [10], 6 mm.
For `Cc1ccc2sc(Nc3ncccc3C(=O)N3CCNC(Cl)C3Cl)nc2c1` (stereo not given), the zone of inhibition at 200 µg/mL in [1] came out at 3 mm; in [3], 7 mm; in test [5], 10 mm; in test [7], 7 mm; in test [9] it was 8 mm. The zone of inhibition at 100 µg/mL in [2] stood at 2 mm; in test [4] it was 7 mm; in [6], 8 mm; in test [8] it was 5 mm; in [10] it was 6 mm.
For the molecule `Cc1ccc2nc(Nc3ncccc3C(=O)N3CCNC(Cl)C3Cl)sc2c1` (stereo not given), the zone of inhibition at 200 µg/mL in [1] stood at 5 mm; in [3], 0 mm; in test [5], 4 mm; in test [7], 3 mm; in test [9] it was 0 mm. The zone of inhibition at 100 µg/mL was 2 mm in test [2]; 0 mm in [4]; 3 mm in test [6]; 3 mm in [8]; 0 mm in [10].
As for `COc1cccc2sc(Nc3ncccc3C(=O)N3CCNC(Cl)C3Cl)nc12` (stereo not given), the zone of inhibition at 200 µg/mL is 4 mm in [1]; 9 mm in test [3]; 6 mm in test [5]; 4 mm in test [7]; 8 mm in [9]. Besides, the zone of inhibition at 100 µg/mL amounted to 3 mm in test [2]; 8 mm in [4]; 6 mm in [6]; 0 mm in [8]; 7 mm in test [10].
Turning to `COc1ccc2nc(Nc3ncccc3C(=O)N3CCNC(Cl)C3Cl)sc2c1` (stereo not given), the zone of inhibition at 200 µg/mL in [1] was 6 mm; in [3], 2 mm; in [5] it was 6 mm; in test [7], 9 mm; in test [9] it was 7 mm. In addition, the zone of inhibition at 100 µg/mL came to 4 mm in [2], 5 mm in test [6], 8 mm in test [8] and 4 mm in test [10].
Turning to `CC1(C)S[C@@H]2[C@H](NC(=O)[C@H](N)c3ccc(O)cc3)C(=O)N2[C@H]1C(=O)O` [AMOXICILLIN], the zone of inhibition at 200 µg/mL in test [3] worked out at 29 mm; in test [5], 24 mm; in [7], 28 mm; in test [9], 27 mm. The zone of inhibition at 100 µg/mL in [4] turned out to be 16 mm; in test [6], 13 mm; in test [8] it was 16 mm; in test [10], 15 mm.
In the case of `C[C@@H]1[C@H](O)[C@@H](C)/C=C/C=C/C=C/C=C/C=C/C=C/C=C/[C@H](O[C@@H]2O[C@H](C)[C@@H](O)[C@H](N)[C@@H]2O)C[C@@H]2O[C@](O)(C[C@@H](O)C[C@@H](O)[C@H](O)CC[C@@H](O)C[C@@H](O)CC(=O)O[C@H]1C)C[C@H](O)[C@H]2C(=O)O` [AMPHOTERICIN B], the zone of inhibition at 200 µg/mL in test [1] was determined as 18 mm. Also, the zone of inhibition at 100 µg/mL in test [2] was 8 mm.
For `CC1(C)S[C@@H]2[C@H](NC(=O)[C@H](N)c3ccccc3)C(=O)N2[C@H]1C(=O)O` [AMPICILLIN], the zone of inhibition at 200 µg/mL in [3] was found to be 30 mm; in test [5] it was 28 mm; in test [7], 30 mm; in test [9], 31 mm. For the same molecule, the zone of inhibition at 100 µg/mL in test [4] was found to be 17 mm; in test [6] it was 15 mm; in [8] it was 18 mm; in test [10], 18 mm.
For the molecule `CC1(C)S[C@@H]2[C@H](NC(=O)Cc3ccccc3)C(=O)N2[C@H]1C(=O)O` [PENICILLIN G], the zone of inhibition at 200 µg/mL in test [3] turned out to be 25 mm; in test [5], 21 mm; in test [7], 25 mm; in test [9], 22 mm. The zone of inhibition at 100 µg/mL amounted to 14 mm in [4], 12 mm in test [6], 14 mm in test [8] and 13 mm in [10].
